Entries after “also recorded” stand apart in the source; their conditions may differ.
How the values were obtained:
[1] = tested on: HeLa (human cervical cancer); assay: MTT cytotoxicity assay, HeLa; type: cell-based; conditions: continuous 72 h
Method: (§1) The cells were treated for a continuous 72 h period. The resulting 50% growth inhibitory concentration (IC50) values are summarized in Table 4 and graphically depicted in FIG. 5.
(§2) HeLa (human cervical cancer), A549 (human lung cancer), U2OS (osteosarcoma), MCF-7 (human breast cancer) cells were grown as adherent monolayers in growth medium consisting of Dulbecco's Modified Eagle Medium (DMEM) supplemented with 10% fetal bovine serum (FBS) and 1% penicillin/streptomycin. The cultures were grown in 25 cm^2 flasks in an incubator at 37° C. with a humidified atmosphere composed of 5% CO2.
(§3) Trypsinized cells were seeded into a 96-well plate at a cell density of 2000 cells/well in 200 μL of growth medium and incubated for 24 h. The medium was then removed and 200 μL new growth medium containing various concentrations of the platinum complexes was added. After 72 h, the medium was removed, 200 μL of a 0.8 mg/mL solution of MTT in DMEM was added, and the plate was incubated further for 4 h. The DMEM/MTT mixture was aspirated and 200 μL of DMSO with 10% pH 10.5 glycine buffer was added to dissolve the resulting purple formazan crystals. The absorbance of the plates was read at 555 nm. Absorbance values were normalized to the platinum-free control wells and plotted as [Pt] versus % viability. IC50 values were interpolated from the resulting curves. The reported IC50 values are the averages from at least three independent experiments, which each consisted of six replicates per concentration level.

A549 (human lung cancer) = assay: MTT cytotoxicity assay, A549; type: cell-based; conditions: continuous 72 h
Method: as §1, §2, §3

[2] = tested on: U2OS (human osteosarcoma); assay: MTT cytotoxicity assay, U2OS; type: cell-based; conditions: continuous 72 h
Method: as §1, §2, §3

[3] = tested on: MCF-7 (human breast cancer); assay: MTT cytotoxicity assay, MCF-7; type: cell-based; conditions: continuous 72 h
Method: as §1, §2, §3

HeLa cells = assay: Cellular uptake in HeLa cells by GFAAS; type: cell-based, human; conditions: 10 μM, 4 h exposure
Method: The cellular uptake scales with the lipophilicity of the compound in an exponential fashion (FIG. 6). The most lipophilic complex, 5, is taken up to the largest extent (520±80 ng Pt/10^6 cells), whereas the least lipophilic complex is taken up to the least extent (6±2 ng Pt/10^6 cells).
The total platinum uptake per cell was determined using slight modifications of a previously described protocol. In two 6-well plates, 3×10^5 cells per well were seeded in 3 wells with 2.5 mL of growth medium. In one of the plates, the additional 3 wells were filled with 2.5 mL of growth medium to act as blanks for non-specific platinum adsorption on the surface of the well. After incubating for 48 h, each well in the plate containing both cells and cell-free medium was treated with 0.278 mL of a 100-μM solution of the desired compound to give an exposure concentration of 10 μM. The cells and cell-free blanks were incubated with the Pt complex for 4 h. Meanwhile, the cells in the other plate were counted with trypan blue after detachment with trypsin in order to obtain the number of cells per well. After the 4 h incubation period, the growth medium was aspirated and all six wells were washed twice with 3 mL of pH 7.4 PBS and then treated with exactly 0.5 mL of hot (≈90° C.) concentrated nitric acid for 2 h. This nitric acid was analyzed by GFAAS to determine the total Pt content per well. The amount of Pt per cell was calculated by subtracting the average amount of Pt found in the blank wells from the average amount of Pt found in the cell-containing wells and normalizing to the average number of cells per well.

[4] = tested on: nuclear DNA of HeLa cells; assay: Intracellular DNA platination in HeLa cells by GFAAS; type: cell-based, human; conditions: 100 μM for 4 h, then 16 h platinum-free medium
Method: Because platinum-based drugs exert their cytotoxic effects by the formation of DNA cross-links, the extent to which 1-5 bind to intracellular DNA was measured. Cells were treated with 100 μM of the platinum complexes for 4 h and then incubated for an additional 16 h in platinum-free growth medium. The nuclear DNA was isolated, and the quantity of bound platinum was measured by GFAAS.
Five million HeLa cells were seeded in a 100 mm Petri dish containing 9 mL of growth medium. On the following day, the cells were treated with the platinum complex at 100 μM concentration for 4 h. The growth medium was then replaced with platinum-free medium, and the cells were incubated for an additional 16 h. Cells, both floating and attached, were collected and combined. Trypsin (2 mL) was used to detach the cells. The combined cells were centrifuged for 5 min at 4° C., and the resulting cell pellet was washed twice with 3 mL of ice-cold PBS. DNAzol (1 mL, genomic DNA isolation reagent, MRC), containing 100 μg/mL RNase A, was used to lyse the cell pellet. DNA was precipitated with 0.5 mL of absolute ethanol, washed 2 times with 75% ethanol (0.75 mL), and redissolved in 200 μL of 8 mM NaOH. The DNA concentration was determined by UV-visible spectroscopy, and platinum was quantified by GFAAS. The reported values are the average of at least three independent experiments with the error reported as the standard deviation.

[5] = Solution stability in water at 37° C. by NMR spectroscopy; type: physicochemical; conditions: for stability in water (1H NMR spectra): up to 25 days; for half-life of decomposition in water: NMR, first-order fit
Method: (§4) The stabilities of 1-5 in water and pH 7.4 phosphate buffered saline (PBS) at 37° C. were determined by NMR spectroscopy. […] Over the course of this reaction, the pH changed from 7.5 to 6.3. For 4, the rate of decomposition was quicker. […] The pH of this solution remained at 7.5 for the duration of the experiment.
(§5) The platinum complexes were dissolved in water or pH 7.4 PBS containing 10% D2O to a typical concentration of 1 mM. The solutions were transferred to NMR tubes and incubated in a 37° C. water bath. ^1H and ^19F NMR spectra were obtained at various type points during the incubation. A small amount of 1,4-dioxane (δ=3.75 ppm) was included in the samples as an internal standard for referencing the ^1H NMR spectra and a sealed capillary containing aqueous KF (δ=−120.46 ppm) was used for referencing ^19F NMR spectra. The methyl group of 2 in the ^1H NMR spectra was integrated relative to the 1,4-dioxane reference at different time points and used for kinetic analyses. The trifluoromethyl group of 4 in the ^19F NMR spectra was integrated relative to the KF standard at different time points and used for kinetic analyses. Under the assumption of first-order kinetics, approximate half-lives were determined by fitting a line to a plot of ln [Pt] versus time and using the integrated first-order rate law, ln [Pt]=−kt+[Pt]o and the relationship, t1/2=ln 2/k, where [Pt]c, is the starting concentration of complex, k is the pseudo first-order rate constant, t is time, and t1/2 is the half-life. Water suppression for ^1H NMR spectra was accomplished with presaturation. The pH of the solutions was measured at the beginning and end of the desired incubation time using a DG-111-SG glass electrode calibrated with standard buffers.

[6] = Solution stability in pH 7.4 PBS at 37° C. by NMR spectroscopy; type: physicochemical; conditions: for stability in pH 7.4 PBS (1H NMR spectra): up to 25 days; for half-life of decomposition in pH 7.4 PBS: NMR, first-order fit
Method: as §4
In pH 7.4 PBS, the rates of decomposition increased. The half-lives of 2 and 4 in this medium were 3.4 and 1.8 days, respectively. For 4, the final product was the same as that observed in the aquation in non-buffered water characterized by a ^19F NMR chemical shift at −76.6 ppm. […] Although the major final product was the same as that observed for the aquation in pure water (^1H δ=2.22 ppm), two other minor products were observed by ^1H NMR spectroscopy with CH3 proton resonances at 1.91 and 1.56 ppm.
as §5

Solubility observations = type: physicochemical; conditions: for solubility in water: water (cold water wash)
[7] = tested on: HeLa, A549, U2OS, and MCF-7 cell lines; assay: MTT cytotoxicity assay, summary over the four cell lines; type: cell-based, human; conditions: 72 h, mean of HeLa, read-out: average IC50 value in the four cell lines tested
Method: as §1, §2
as §3, with “The reported IC50 values are the averages from at least three independent experiments, which each consisted of six replicates per concentration level.” left out

[8] = tested on: NCI-60 tumor cell panel (60 cell lines); assay: NCI-60 tumor cell panel screen, single dose; type: cell-based; conditions: 10 μM single dose, 48 h, SRB assay, relative to complex-free control
Method: (§6) Compound 4 was submitted to the NCI in July 2011 for single-dose testing in the NCI-60 tumor cell screen. These tests were carried out by the NCI using their established protocols.

[9] = tested on: central nervous system (CNS) cancer cell lines; assay: NCI-60 tumor cell panel screen, CNS cancer cell lines; type: cell-based; conditions: 10 μM single dose, 48 h, SRB assay
Method: as §6

[10] = up 60 days; cited from earlier work

## N.N.[Cl][Pt][Cl] [cisplatin, cis-diamminedichloroplatinum(II), reference compound]
[1]
  IC50: 2.1 ± 0.1 µM
A549 (human lung cancer)
  IC50: 3.2 ± 0.6 µM
[2]
  IC50: 5 ± 2 µM
[3]
  IC50: 14 ± 3 µM
HeLa cells
  HeLa Cellular Uptake: 14 ± 2 ng Pt/10^6 cells
[4]
  Pt/DNA: 1.58 ± 0.97 pmol/µg

## CC1=CC(c2ccccc2)=[O+][Pt-2]([NH3+])([NH3+])[O]1.O=[N+]([O-])[O-] (stereo not shown) [Compound 3, [Pt(bzac)(NH3)2](NO3)]
[5]
  stability in water (1H NMR spectra): no changes; also recorded: no sign of decomposition
[6]
  stability in pH 7.4 PBS (1H NMR spectra): no changes; also recorded: no sign of decomposition
[1]
  IC50: 24 ± 4 µM
A549 (human lung cancer)
  IC50: 7 ± 2 µM
[2]
  IC50: 8 ± 2 µM
[3]
  IC50: 33 ± 6 µM
HeLa cells
  HeLa Cellular Uptake: 83 ± 8 ng Pt/10^6 cells
[4]
  DNA platination: ≈ 0.3 pmol Pt/μg DNA
  Pt/DNA: 0.35 ± 0.24 pmol/µg
Solubility observations
  solubility in water: only sparingly soluble in water

## CC1=CC(C)=[O+][Pt-2]([NH3+])([NH3+])[O]1.CC1=CC(C)=[O+][Pt-2]([NH3+])([NH3+])[O]1.O=S(=O)([O-])[O-] (stereo not shown) [Compound 1, [Pt(acac)(NH3)2](SO4)0.5]
[5]
  stability in water (1H NMR spectra): no changes; also recorded: no sign of decomposition
[6]
  stability in pH 7.4 PBS (1H NMR spectra): no changes; also recorded: no sign of decomposition
[1]
  IC50: 32 ± 5 µM
A549 (human lung cancer)
  IC50: 28 ± 9 µM
[2]
  IC50: 24 ± 2 µM
[3]
  IC50: 76 ± 2 µM
HeLa cells
  HeLa Cellular Uptake: 6 ± 2 ng Pt/10^6 cells
[4]
  Pt/DNA: 0.063 ± 0.012 pmol/µg

## O=[N+]([O-])[O-].[NH3+][Pt-2]1([NH3+])[O]C(c2ccccc2)=CC(c2ccccc2)=[O+]1 (stereo not shown) [Compound 5, [Pt(dbm)(NH3)2](NO3)]
[5]
  stability in water (1H NMR spectra): no changes; also recorded: no sign of decomposition
[6]
  stability in pH 7.4 PBS (1H NMR spectra): no changes; also recorded: no sign of decomposition
[1]
  IC50: 6.7 ± 0.7 µM
A549 (human lung cancer)
  IC50: 1.3 ± 0.3 µM
[2]
  IC50: 2.7 ± 0.7 µM
[3]
  IC50: 3.1 ± 0.5 µM
HeLa cells
  HeLa Cellular Uptake: 520±80 ng Pt/10^6 cells
[4]
  Pt/DNA: 23 ± 10 pmol/µg

## O=[N+]([O-])[O-].[NH3+][Pt-2]1([NH3+])[O]C(C(F)(F)F)=CC(c2ccccc2)=[O+]1 (stereo not shown) [Compound 4, [Pt(tfbz)(NH3)2](NO3)]
[5]
  half-life of decomposition in water: 29 days
[6]
  half-life of decomposition in pH 7.4 PBS: 1.8 days
[1]
  IC50: 3 ± 1 µM
A549 (human lung cancer)
  IC50: 1.3 ± 0.2 µM
[2]
  IC50: 1.6 ± 0.5 µM
[3]
  IC50: 4.3 ± 0.3 µM
[7]
  IC50: 2.6 µM
[8]
  average cell growth percentage of the 60 cell lines: 89.65%
[9]
  average cell growth in CNS cancer cell lines: 64.52%
HeLa cells
  HeLa Cellular Uptake: 160 ± 20 ng Pt/10^6 cells
[4]
  Pt/DNA: 14 ± 3 pmol/µg
Solubility observations
  solubility in water: only sparingly soluble in water

## N.N.O=C([O-])C1(C(=O)[O-])CCC1.[Pt+2] [carboplatin]
[10]
  decomposition in water: no decomposition

## CC1=CC(C(F)(F)F)=[O+][Pt-2]([NH3+])([NH3+])[O]1.CC1=CC(C(F)(F)F)=[O+][Pt-2]([NH3+])([NH3+])[O]1.O=S(=O)([O-])[O-] (stereo not shown) [Compound 2, [Pt(tfac)(NH3)2](SO4)0.5]
[5]
  half-life of decomposition in water: 58 days
[6]
  half-life of decomposition in pH 7.4 PBS: 3.4 days
[1]
  IC50: 2.9 ± 0.7 µM
A549 (human lung cancer)
  IC50: 2.2 ± 0.6 µM
[2]
  IC50: 4.1 ± 0.8 µM
[3]
  IC50: 15 µM
HeLa cells
  HeLa Cellular Uptake: 29 ± 9 ng Pt/10^6 cells
[4]
  DNA platination: ≈ 0.3 pmol Pt/μg DNA
  Pt/DNA: 0.30 ± 0.07 pmol/µg
Solubility observations; aqueous and organic solvent
  solubility in aqueous and organic solvent: low solubility

Reference: patent US8729286B2, “Platinum compounds as treatment for cancers, and related methods, kits, and compositions” (Massachusetts Institute of Technology, priority 2012, dated 2014)
